{
  "source": "PubChem BioAssay (NCI)",
  "experiment_in_all_cases": "NCI tumour cell line growth inhibition, 48 h",
  "key": {"[1]": {"tested_on": "ACHN renal"}, "[2]": {"tested_on": "CAKI-1 renal"}, "[3]": {"tested_on": "COLO 205 colon"}, "[4]": {"tested_on": "DMS 114 small cell lung"}, "[5]": {"tested_on": "HCC-2998 colon"}, "[6]": {"tested_on": "HOP-18 NSCLC"}, "[7]": {"tested_on": "HOP-62 NSCLC"}, "[8]": {"tested_on": "IGROV1 ovarian"}, "[9]": {"tested_on": "LXFL 529 NSCLC"}, "[10]": {"tested_on": "M14 melanoma"}, "[11]": {"tested_on": "OVCAR-4 ovarian"}, "[12]": {"tested_on": "SNB-19 CNS"}, "[13]": {"tested_on": "XF 498 CNS"}, "[14]": {"tested_on": "RXF 393 renal"}, "[15]": {"tested_on": "SK-OV-3 ovarian"}, "[16]": {"tested_on": "TK-10 renal"}, "[17]": {"tested_on": "NCI/ADR-RES ovarian"}, "[18]": {"tested_on": "P388/ADR leukemia"}, "[19]": {"tested_on": "RPMI-8226 leukemia"}, "[20]": {"tested_on": "MDA-MB-231 breast"}},
  "note": "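Cells were grown in 96-well plates and exposed to each compound for 48 hours at five concentrations; endpoints were interpolated linearly between bracketing concentrations, or set to the highest concentration if not reached. TGI: total growth inhibition.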",
  "data": [
    {"smiles": "CC1=C(Cl)C=CP(=O)(Oc2ccccc2)C1", "note": "(stereo not drawn)", "values": [
      {"measurement": "TGI", "setting": "[1]", "value": "> 100", "unit": "µM"},
      {"measurement": "TGI", "setting": "[2]", "value": "> 100", "unit": "µM"},
      {"measurement": "TGI", "setting": "[3]", "value": "> 100", "unit": "µM"},
      {"measurement": "TGI", "setting": "[4]", "value": 90.9, "unit": "µM"},
      {"measurement": "TGI", "setting": "[5]", "value": "> 100", "unit": "µM"},
      {"measurement": "TGI", "setting": "[6]", "value": 89.6, "unit": "µM"},
      {"measurement": "TGI", "setting": "[7]", "value": "> 100", "unit": "µM"},
      {"measurement": "TGI", "setting": "[8]", "value": "> 100", "unit": "µM"},
      {"measurement": "TGI", "setting": "[9]", "value": 28.7, "unit": "µM"},
      {"measurement": "TGI", "setting": "[10]", "value": 38.2, "unit": "µM"},
      {"measurement": "TGI", "setting": "[11]", "value": "> 100", "unit": "µM"},
      {"measurement": "TGI", "setting": "[12]", "value": "> 100", "unit": "µM"},
      {"measurement": "TGI", "setting": "[13]", "value": "> 100", "unit": "µM"}
    ]},
    {"smiles": "COc1ccc(/C=c2\\sc3n(c2=O)CCN=3)cc1", "values": [
      {"measurement": "TGI", "setting": "[1]", "value": "> 100", "unit": "µM"},
      {"measurement": "TGI", "setting": "[5]", "value": "> 100", "unit": "µM"},
      {"measurement": "TGI", "setting": "[6]", "value": "> 100", "unit": "µM"},
      {"measurement": "TGI", "setting": "[7]", "value": "> 100", "unit": "µM"},
      {"measurement": "TGI", "setting": "[9]", "value": "> 100", "unit": "µM"},
      {"measurement": "TGI", "setting": "[10]", "value": "> 100", "unit": "µM"},
      {"measurement": "TGI", "setting": "[11]", "value": "> 100", "unit": "µM"},
      {"measurement": "TGI", "setting": "[14]", "value": "> 100", "unit": "µM"},
      {"measurement": "TGI", "setting": "[15]", "value": "> 100", "unit": "µM"},
      {"measurement": "TGI", "setting": "[16]", "value": "> 100", "unit": "µM"}
    ]},
    {"smiles": "Nc1c(S(=O)(=O)O)cc2cc(S(=O)(=O)O)ccc2c1N=Nc1ccc(-c2ccc(N=Nc3c(N)c(S(=O)(=O)O)cc4cc(S(=O)(=O)O)ccc34)c(S(=O)(=O)O)c2)cc1", "values": [
      {"measurement": "TGI", "setting": "[3]", "value": "> 100", "unit": "µM"},
      {"measurement": "TGI", "setting": "[4]", "value": "> 100", "unit": "µM"},
      {"measurement": "TGI", "setting": "[5]", "value": "> 100", "unit": "µM"},
      {"measurement": "TGI", "setting": "[6]", "value": "> 100", "unit": "µM"},
      {"measurement": "TGI", "setting": "[7]", "value": "> 100", "unit": "µM"},
      {"measurement": "TGI", "setting": "[8]", "value": "> 100", "unit": "µM"},
      {"measurement": "TGI", "setting": "[17]", "value": "> 100", "unit": "µM"},
      {"measurement": "TGI", "setting": "[11]", "value": 74.7, "unit": "µM"},
      {"measurement": "TGI", "setting": "[18]", "value": "> 100", "unit": "µM"},
      {"measurement": "TGI", "setting": "[19]", "value": "> 100", "unit": "µM"},
      {"measurement": "TGI", "setting": "[14]", "value": "> 100", "unit": "µM"},
      {"measurement": "TGI", "setting": "[15]", "value": "> 100", "unit": "µM"},
      {"measurement": "TGI", "setting": "[12]", "value": "> 100", "unit": "µM"},
      {"measurement": "TGI", "setting": "[13]", "value": "> 100", "unit": "µM"}
    ]},
    {"smiles": "COc1ccc(C(=C2C=CC=C2)c2ccc(OC)cc2)cc1", "values": [
      {"measurement": "TGI", "setting": "[1]", "value": "> 100", "unit": "µM"},
      {"measurement": "TGI", "setting": "[2]", "value": 56.3, "unit": "µM"},
      {"measurement": "TGI", "setting": "[3]", "value": 43.5, "unit": "µM"},
      {"measurement": "TGI", "setting": "[5]", "value": 42.6, "unit": "µM"},
      {"measurement": "TGI", "setting": "[7]", "value": "> 100", "unit": "µM"},
      {"measurement": "TGI", "setting": "[8]", "value": "> 100", "unit": "µM"},
      {"measurement": "TGI", "setting": "[10]", "value": "> 100", "unit": "µM"},
      {"measurement": "TGI", "setting": "[20]", "value": 34.8, "unit": "µM"},
      {"measurement": "TGI", "setting": "[17]", "value": "> 100", "unit": "µM"},
      {"measurement": "TGI", "setting": "[11]", "value": "> 100", "unit": "µM"},
      {"measurement": "TGI", "setting": "[19]", "value": 28, "unit": "µM"},
      {"measurement": "TGI", "setting": "[14]", "value": 61.7, "unit": "µM"},
      {"measurement": "TGI", "setting": "[15]", "value": "> 100", "unit": "µM"},
      {"measurement": "TGI", "setting": "[12]", "value": 74.8, "unit": "µM"},
      {"measurement": "TGI", "setting": "[16]", "value": "> 100", "unit": "µM"}
    ]},
    {"smiles": "Oc1ccc(-c2nc3ccc(Br)cc3s2)cc1", "values": [
      {"measurement": "TGI", "setting": "[1]", "value": 62.8, "unit": "µM"},
      {"measurement": "TGI", "setting": "[2]", "value": 33.7, "unit": "µM"},
      {"measurement": "TGI", "setting": "[3]", "value": 33.7, "unit": "µM"},
      {"measurement": "TGI", "setting": "[8]", "value": 33.6, "unit": "µM"},
      {"measurement": "TGI", "setting": "[10]", "value": 39.6, "unit": "µM"},
      {"measurement": "TGI", "setting": "[20]", "value": 45, "unit": "µM"},
      {"measurement": "TGI", "setting": "[17]", "value": 67.3, "unit": "µM"},
      {"measurement": "TGI", "setting": "[19]", "value": 40.2, "unit": "µM"},
      {"measurement": "TGI", "setting": "[14]", "value": "> 100", "unit": "µM"},
      {"measurement": "TGI", "setting": "[15]", "value": 51.4, "unit": "µM"},
      {"measurement": "TGI", "setting": "[12]", "value": 85.2, "unit": "µM"},
      {"measurement": "TGI", "setting": "[16]", "value": 35.9, "unit": "µM"}
    ]},
    {"smiles": "CCCCCCCC/C=C\\CCCCCCCCCCCC(=O)O", "values": [
      {"measurement": "TGI", "setting": "[2]", "value": "> 117", "unit": "µM"},
      {"measurement": "TGI", "setting": "[3]", "value": 40.4, "unit": "µM"},
      {"measurement": "TGI", "setting": "[5]", "value": "> 85.8", "unit": "µM"},
      {"measurement": "TGI", "setting": "[6]", "value": "> 125", "unit": "µM"},
      {"measurement": "TGI", "setting": "[7]", "value": 63.6, "unit": "µM"},
      {"measurement": "TGI", "setting": "[8]", "value": "> 125", "unit": "µM"},
      {"measurement": "TGI", "setting": "[17]", "value": "> 125", "unit": "µM"},
      {"measurement": "TGI", "setting": "[11]", "value": "> 115", "unit": "µM"},
      {"measurement": "TGI", "setting": "[18]", "value": 36.3, "unit": "µM"},
      {"measurement": "TGI", "setting": "[19]", "value": 110, "unit": "µM"},
      {"measurement": "TGI", "setting": "[14]", "value": 18.4, "unit": "µM"},
      {"measurement": "TGI", "setting": "[15]", "value": "> 125", "unit": "µM"},
      {"measurement": "TGI", "setting": "[12]", "value": "> 64.5", "unit": "µM"},
      {"measurement": "TGI", "setting": "[13]", "value": 2.82, "unit": "µM"}
    ]}
  ]
}
